Measured values from ChEMBL document CHEMBL4339196, “1H-Pyrrolo[3,2-b]pyridine GluN2B-Selective Negative Allosteric Modulators” (ACS Med Chem Lett, 2019).

Key:
[1] = Solubility of the compound at pH 7; format: physicochemical; conditions: buffer
[2] = Solubility of the compound at pH 2; format: physicochemical; conditions: buffer

- solubility [1]: < 4 µM
- solubility [2]: < 4 µM
Structure (SMILES): O=C(Cn1c(=O)[nH]c2ncc(-c3cccc(C(F)(F)F)c3)cc21)NC1CC1
